Laboratory results reported in patent US20060135403A1, “Therapeutic formulations for the treatment of beta-amyloid related diseases” (priority 2002, published 2006).
Structures can show the parent of a compound that is named as a salt. Where two headings read alike, the source gives them in different places.

Columns and labels:
Aβ1-40 = biological target: T1, Aβ1-40 (Homo sapiens, UniProt P05067); assay: Mass spectroscopy (MS) binding assay; parameters: key: “+++” indicates strong binding; “++” indicates moderate binding; “+” indicates weak binding; “−” indicates no detectable binding; conditions: 200 μM test compound, 20 μM solubilized Aβ40, 20% ethanol, pH 7.4
T1 construct: 20 μM of solubilized Aβ40
Method: Test compounds were purchased from commercial sources or synthesized and screened by mass spectroscopy (“MS”) assays. The MS assay gives data on the ability of compounds to bind to an amyloid.
In the mass spectroscopy (“MS”) assay, samples were prepared as aqueous solutions containing 20% ethanol, 200 μM of a test compound and 20 μM of solubilized Aβ40. The pH value of each sample was adjusted to 7.4 (±0.2) by addition of 0.1% aqueous sodium hydroxide. The solutions were then analyzed by electrospray ionization mass spectroscopy using a Waters ZQ 4000 mass spectrometer. Samples were introduced by direct infusion at a flow-rate of […] within 2 hours after sample preparation. The source temperature was kept at 70° C. and the cone voltage was 20 V for all the analysis. Data were processed using Masslynx 3.5 software. The MS assay gives data on the ability of compounds to bind to Aβ, whereas the ThT, EM and CD assays give data on inhibition of fibrillogenesis. “+++” indicates strong binding; “++” indicates moderate binding; “+” indicates weak binding; “−” indicates no detectable binding; and entries left blank were not determined.

Aβ [1] = conditions: PDAPP, cited from earlier work
Aβ [2] = conditions: cited from earlier work
Target sequence in this assay (P05067 672-711 limits assumed): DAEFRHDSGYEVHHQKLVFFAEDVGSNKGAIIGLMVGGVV

Aβ [3] = conditions: cited from earlier work; remark: listed apart in the source
Aβ [4] = biological target: T2, Aβ (Homo sapiens, UniProt P05067); conditions: TgAPPswe, IP; cited from earlier work
T2 construct: the amyloid-β peptide (Aβ), a 39-43 amino acid protein that is produced through cleavage of the β-amyloid precursor protein (APP); host or cells: brains of transgenic mice (PDAPP, Tg2576, Tg2576+PS1, TgCRND8, TgAPPswe)

Aβ [5] = conditions: TgCRND8, IP; cited from earlier work

T1 sequence (P05067 672-711 limits assumed): as above

| Compound | MS Binding Aβ1-40 (Aβ1-40) | also measured |
| --- | --- | --- |
| CCCC(CO)NCCCS(=O)(=O)O (racemic) [CA, 3-[(dl)-1-hydroxy-2-pentyl]amino-1-propanesulfonic acid] | +++ |  |
| O=C(NCC(O)CS(=O)(=O)[O-])OCc1ccccc1.[Na+] (centres unmarked) [AC, N-benzyloxycarbonyl-3-amino-2-hydroxy-1-propanesulfonic acid sodium salt monohydrate] | + |  |
| O=C(NCCCCS(=O)(=O)[O-])OCc1ccccc1.[Na+] [AD, N-benzyloxycarbonyl-4-amino-1-butanesulfonic acid sodium salt monohydrate] | + |  |
| O=C(NCCCS(=O)(=O)[O-])OCc1ccccc1.[Na+] [AE, N-benzyloxycarbonyl-3-amino-1-propanesulfonic acid sodium salt monohydrate] | + |  |
| O=C(NCCCS(=O)(=O)O)NC(c1ccccc1)c1ccccc1 [AF, 3-{[(benzhydrylamino)carbonyl]amino}-1-propanesulfanic acid] | + |  |
| O=C(Cc1ccccc1)NCCCS(=O)(=O)[O-].[Na+] [AG, 3-[(phenylacetyl)amino]-1-propanesulfonic acid, sodium salt] | + |  |
| O=C(NCCCS(=O)(=O)[O-])NCc1ccccc1.[Na+] [AH, 3-{[(benzylamino)carbonyl]amino}-1-propanesulfonic acid, sodium salt] | + |  |
| CC(C)Cc1ccc(C(C)C(=O)NCCCS(=O)(=O)[O-])cc1.[Na+] (centres unmarked) [AL, 3-{[2-(4-isobutylphenyl)propanoyl]amino}-1-propanesulfonic acid, sodium salt] | ++ |  |
| O=S(=O)([O-])CCCNC(=S)NCc1ccccc1.[Na+] [AM, 3-{[(benzylamino)carbonothioyl]amino}-1-propanesulfonic acid sodium salt] | + |  |
| C[n+]1cccc(C(=O)NCCCS(=O)(=O)[O-])c1 [AN, 3-((N-methylnicotlnoyl)amino)-1-propanesulfonic acid, inner salt] | − |  |
| O=S(=O)(O)CCCNCc1ccc2c(c1)OCO2 [AW, 3-[((1,3-benzodioxol-5-yl)methyl)amino]-1-propanesulfonic acid] | ++ |  |
| COc1ccc(CNCCCS(=O)(=O)O)cc1OC [AX, 3-(3,4-dimethoxybenzylamino)-1-propanesulfonic acid] | +++ |  |
| COc1cc(CNCCCS(=O)(=O)O)cc(OC)c1OC [AY, 3-(3,4,5-trimethoxybenzylamino)-1-propanesulfonic acid] | ++ |  |
| COc1cccc(CNCCCS(=O)(=O)O)c1OC [AZ, 3-(2,3-dimethoxybenzylamino)-1-propanesulfonic acid] | ++ |  |
| COc1cc(CNCCCS(=O)(=O)O)cc(OC)c1 [BA, 3-(3,5-dimethoxybenzylamino)-1-propanesulfonic acid] | +++ |  |
| COc1ccc(CNCCCS(=O)(=O)O)c(OC)c1 [BB, 3-(2,4-dimethoxybenzylamino)-1-propanesulfonic acid] | +++ |  |
| O=S(=O)(O)CCCNCc1ccc(O)c(O)c1 [BC, 3-(3,4-dihydroxybenzylamino)-1-propanesulfonic acid] | + |  |

| Compound | MS Binding Aβ1-40 (Aβ1-40) | also measured |
| --- | --- | --- |
| NCCNS(=O)(=O)[O-].[Na+] [BI] | + |  |
| O=S(=O)(O)CCCNCCc1c[nH]c2ccccc12 [BT, 3-{[2-(3-indolyl)ethyl]-amino}-1-propanesulfonic acid] | +++ |  |
| O=S(=O)(O)CCCNC1CCCc2ccccc21 (centres unmarked) [BU, 3-(1,2,3,4-tetrahydro-1-naphthylamino)-1-propanesulfonic acid] | +++ |  |
| CCNCCCS(=O)(=O)O [BV, 3-(ethylamino)-1-propanesulfonic acid] | +++ |  |
| O=S(=O)(O)CCCNC12CC3CC(CC(C3)C1)C2 [BW, 3-(1-adamantyl)amino-1-propanesulfonic acid] | +++ |  |
| CC(C)(C)NCCCS(=O)(=O)O [BX, 3-(t-butyl)amino-1-propanesulfonic acid] | +++ |  |
| O=S(=O)(O)CCCNC1CC2CCC1C2 (centres unmarked) [BY, 3-(2-norbornyl)amino-1-propanesulfonic acid] | +++ |  |
| O=S(=O)(O)CCCNC1C2CC3CC(C2)CC1C3 (centres unmarked) [BZ, 3-(2-adamantyl)amino-1-propanesulfonic acid] | +++ |  |
| NCCCCS(=O)(=O)O [CB, 4-amino-1-butanesulfonic acid] | ++ |  |
| N=C(N)SCCCS(=O)(=O)O [CP, 3-(amidinothio)-1-propanesulfonic acid] | + |  |
| O=S(=O)(O)CCCN1CC=C(CCCc2ccccc2)CC1 [D, 4-(3-phenylpropyl)-1-sulfopropyl-2,3,6-tetrahydropyridine] | + |  |
| O=S(=O)([O-])CCCC[n+]1ccc(C2CC=CCC2)cc1 (centres unmarked) [T, 4-(4-cyclohex-3-enylpyridyl) butanesulfonic acid, inner salt] | + |  |
| Aβ40: Aβ40 peptide given orally or nasally as immunogen (Weiner 2000) |  | Change in Cerebral Levels: Amyloid Burden (Aβ [1]; nasal): −60%; Change in Cerebral Levels: Aβ, total Aβ levels (Aβ [1]; nasal): Total: −50%; Change in Cerebral Levels: Amyloid Burden (Aβ [1]; oral): 0%; Change in Cerebral Levels: Aβ, total Aβ levels (Aβ [1]; oral): Total: 0% |
| Cholyl-LVFFA-OH |  | anti-fibrillogenic activity (Aβ [2]): can act as an anti-fibrillogenic agent |
| K6Aβ1-30: Aβ peptide immunogen of Sigurdsson 2001 |  | Change in Cerebral Levels: Amyloid Burden (Aβ [3]; Tg2576, SC): −85%; Change in Cerebral Levels: Aβ, total Aβ levels (Aβ [3]; Tg2576, SC): Total: −55% |
| fAβ42: fibrillar Aβ42 used for active immunization |  | Change in Cerebral Levels: Aβ, levels of Aβ40 (Aβ [4]): 40: +100%;; Change in Cerebral Levels: Aβ, levels of Aβ42 (Aβ [4]): 42: 0%; Change in Cerebral Levels: Amyloid Burden (Aβ [1]; IP): −95%; Change in Cerebral Levels: Aβ, total Aβ levels (Aβ [1]; IP): Total: −80%; Change in Cerebral Levels: Amyloid Burden (Aβ [5]): −50%; Change in Cerebral Levels: Aβ (Aβ [3]; Tg2576, IP, Aβ species not specified): −70%; Change in Cerebral Levels: Amyloid Burden (Aβ [3]; Tg2576, IP): −85%; Change in Cerebral Levels: Amyloid Burden (Aβ [3]; Tg2576, SC): −80% |
